According to ChEMBL document CHEMBL5055681, “Optimized protocols for assessing libraries of poorly soluble sortase A inhibitors for antibacterial activity against medically-relevant bacteria, toxicity and enzyme inhibition” (Bioorg Med Chem, 2021):
≈ marks a conversion by molar mass, not a printed value. Calls of active or inactive are those of the source. The rule behind the calls is not given here.

Assays:
[1] = Solubility of the compound in 5% DMSO in MHB assessed as precipitation at up to 500 ug/ml measured over 24 hrs; assay type: physicochemical; conditions: dose < 500 µg/ml
Staphylococcus aureus [2] = assay: Antimicrobial activity against Staphylococcus aureus ATCC 25923 assessed as bacterial growth inhibition measured after 24 hrs by resazurin dye based broth microdilution method; assay type: functional
Staphylococcus aureus [3] = assay: Antimicrobial activity against Staphylococcus aureus ATCC 25923 assessed as bacterial growth inhibition measured after 24 hrs by CLSI based agar dilution method; assay type: functional
Staphylococcus aureus [4] = assay: Antimicrobial activity against Staphylococcus aureus ATCC 25923 assessed as zone of inhibition at 250 ug/ml measured after 24 hrs by disc diffusion method; assay type: functional, organism-based; conditions: dose 250.0 µg/ml
Staphylococcus aureus [5] = assay: Antimicrobial activity against Staphylococcus aureus MRSA ATCC 43300 assessed as bacterial growth inhibition measured after 24 hrs by resazurin dye based broth microdilution method; assay type: functional
Escherichia coli = assay: Antimicrobial activity against Escherichia coli ATCC 25922 assessed as bacterial growth inhibition measured after 24 hrs by resazurin dye based broth microdilution method; assay type: functional
[6] = Inhibition of Staphylococcus aureus sortase A using Abz-LPETGK(Dnp)-NH2 fluorescent peptide as a substrate assessed as substrate cleavage measured over 60 mins by FRET assay
HEK293 [7] = assay: Cytotoxicity against HEK293 cells assessed as reduction in cell viability at 62.5 to 2000 ug/ml measured after 24 hrs by resazurin dye based cell viability assay; conditions: human, hek293, 24 h, dose 62.5-2000 µg/ml
[8] = Ratio of MIC for antimicrobial activity against Staphylococcus aureus ATCC 25923 to IC50 for inhibition of Staphylococcus aureus sortase A using Abz-LPETGK(Dnp)-NH2 fluorescent peptide as substrate; assay type: toxicity
Pseudomonas aeruginosa = assay: Antimicrobial activity against Pseudomonas aeruginosa ATCC 27853 assessed as bacterial growth inhibition measured after 24 hrs by resazurin dye based broth microdilution method; conditions: ATCC 27853, 24 h
[9] = Solubility of the compound in 5% DMSO in MHB assessed as precipitation at up to 2.0 ug/ml measured over 24 hrs; assay type: physicochemical; conditions: dose < 2 µg/ml
Staphylococcus aureus [10] = assay: Antimicrobial activity against Staphylococcus aureus ATCC 25923 assessed as zone of inhibition at 500 ug/ml measured after 24 hrs by disc diffusion method; assay type: functional
HEK293 [11] = assay: Cytotoxicity against HEK293 cells assessed as reduction in cell viability at 31.3 to 1000 ug/ml measured after 24 hrs by resazurin dye based cell viability assay; conditions: human, hek293, 24 h, dose 31.3-1000 µg/ml
[12] = Solubility of the compound in 5% DMSO in MHB assessed as precipitation at up to 3.9 ug/ml measured over 24 hrs; assay type: physicochemical; conditions: dose < 3.9 µg/ml
Staphylococcus aureus [13] = assay: Antimicrobial activity against Staphylococcus aureus ATCC 25923 assessed as zone of inhibition at 125 ug/ml measured after 24 hrs by disc diffusion method; assay type: functional, organism-based; conditions: dose 125.0 µg/ml

SMILES | solubility [1] | MIC (Staphylococcus aureus [2]) [µg/mL] | MIC (Staphylococcus aureus [3]) [µg/mL] | Activity (Staphylococcus aureus [4]) | MIC (Staphylococcus aureus [5]) [µg/mL] | MIC (Escherichia coli) [µg/mL] | IC50 [6] [µg/mL] | Activity (HEK293 [7]) | Ratio [8] | MIC (Pseudomonas aeruginosa) [µg/mL] | solubility [9] | zone of inhibition at 500 µg/mL (Staphylococcus aureus [10]; read-out: DIZ) [mm] | Activity (HEK293 [11]) | solubility [12] | Activity (Staphylococcus aureus [13]) | Activity (Staphylococcus aureus [10]; dose 500.0 µg/ml)
O=c1c(O)c(-c2ccc(O)c(O)c2)oc2cc(O)cc(O)c12 [QUERCETIN] | Insoluble | 250 (≈ 827 µM) | 250 (≈ 827 µM) | Active | 250 (≈ 827 µM) | 250 (≈ 827 µM) | 35.1 (≈ 116 µM) | Non-Toxic | 6 | 250 (≈ 827 µM) | – | – | – | – | – | –
O=C(/C=C/c1ccccc1)c1ccccc1 [CHALCONE] | – | 125 (≈ 600 µM) | 125 (≈ 600 µM) | Active | 125 (≈ 600 µM) | 500 (≈ 2400 µM) | 25.2 (≈ 121 µM) | – | 5 | 500 (≈ 2400 µM) | Soluble | 16 | Toxic | – | – | –
COc1ccc2cc3[n+](cc2c1OC)CCc1cc2c(cc1-3)OCO2 [BERBERINE] | – | 125 | 125 | – | 125 | 250 | 6.9 | – | 18.1 | 500 | – | – | Non-Toxic | Soluble | Active | –
COc1cc(/C=C/C(=O)CC(=O)/C=C/c2ccc(O)c(OC)c2)ccc1O [CURCUMIN] | Insoluble | 250 (≈ 679 µM) | 250 (≈ 679 µM) | – | 250 (≈ 679 µM) | 250 (≈ 679 µM) | 42.2 (≈ 115 µM) | Toxic | 7.1 | 250 (≈ 679 µM) | – | – | – | – | – | Active
